± gives the expanded uncertainty stated by the source.
Details: Liquid, Vibrating tube method

## CCCCCCC [heptane]
303.15 K, 19974 kPa
  mass density: 693.813 ± 0.88 kg/m3
303.15 K, 21920 kPa
  mass density: 695.403 ± 0.88 kg/m3
303.15 K, 24992 kPa
  mass density: 697.736 ± 0.9 kg/m3
303.15 K, 31958 kPa
  mass density: 702.727 ± 0.93 kg/m3
303.15 K, 32862 kPa
  mass density: 703.514 ± 0.93 kg/m3
303.15 K, 33112 kPa
  mass density: 703.9 ± 0.93 kg/m3
303.15 K, 34081 kPa
  mass density: 704.468 ± 0.94 kg/m3
303.15 K, 34980 kPa
  mass density: 705.109 ± 0.94 kg/m3
303.15 K, 37951 kPa
  mass density: 707.216 ± 0.96 kg/m3
303.15 K, 39904 kPa
  mass density: 708.418 ± 0.97 kg/m3
303.15 K, 42014 kPa
  mass density: 709.635 ± 0.98 kg/m3
303.15 K, 44896 kPa
  mass density: 711.236 ± 0.99 kg/m3
303.15 K, 47951 kPa
  mass density: 713.224 ± 1 kg/m3
303.15 K, 50065 kPa
  mass density: 714.711 ± 1 kg/m3
303.15 K, 52073 kPa
  mass density: 715.915 ± 1 kg/m3
303.15 K, 55074 kPa
  mass density: 717.452 ± 1.1 kg/m3
303.15 K, 57989 kPa
  mass density: 719.654 ± 1.1 kg/m3
303.15 K, 59979 kPa
  mass density: 720.537 ± 1.1 kg/m3
303.15 K, 62052 kPa
  mass density: 721.855 ± 1.1 kg/m3
303.15 K, 64988 kPa
  mass density: 723.925 ± 1.1 kg/m3
303.15 K, 66030 kPa
  mass density: 724.328 ± 1.1 kg/m3
303.16 K, 2964.9 kPa
  mass density: 678.337 ± 0.82 kg/m3
303.16 K, 7045.6 kPa
  mass density: 682.343 ± 0.83 kg/m3
303.16 K, 8858.2 kPa
  mass density: 683.448 ± 0.84 kg/m3
303.16 K, 10014 kPa
  mass density: 684.334 ± 0.84 kg/m3
303.16 K, 18021 kPa
  mass density: 692.198 ± 0.87 kg/m3
303.16 K, 27933 kPa
  mass density: 699.906 ± 0.91 kg/m3
303.16 K, 29990 kPa
  mass density: 701.007 ± 0.92 kg/m3
308.15 K, 105 kPa
  mass density: 671.006 ± 0.81 kg/m3
308.15 K, 274.3 kPa
  mass density: 671.143 ± 0.81 kg/m3
308.15 K, 494.1 kPa
  mass density: 671.318 ± 0.81 kg/m3
308.15 K, 803.3 kPa
  mass density: 671.687 ± 0.81 kg/m3
308.15 K, 1039.5 kPa
  mass density: 672.093 ± 0.82 kg/m3
308.15 K, 1916.7 kPa
  mass density: 672.909 ± 0.82 kg/m3
308.15 K, 2980.7 kPa
  mass density: 674.097 ± 0.82 kg/m3
308.15 K, 4990.2 kPa
  mass density: 676.132 ± 0.82 kg/m3
308.15 K, 6964.9 kPa
  mass density: 678.143 ± 0.83 kg/m3
308.15 K, 8864.3 kPa
  mass density: 679.887 ± 0.84 kg/m3
308.15 K, 9863.1 kPa
  mass density: 680.761 ± 0.84 kg/m3
308.15 K, 12009 kPa
  mass density: 682.857 ± 0.85 kg/m3
308.15 K, 17850 kPa
  mass density: 687.815 ± 0.87 kg/m3
308.15 K, 19930 kPa
  mass density: 689.488 ± 0.88 kg/m3
308.15 K, 21988 kPa
  mass density: 691.177 ± 0.89 kg/m3
308.15 K, 25012 kPa
  mass density: 693.658 ± 0.9 kg/m3
308.15 K, 27955 kPa
  mass density: 695.718 ± 0.91 kg/m3
308.15 K, 29906 kPa
  mass density: 696.905 ± 0.92 kg/m3
308.15 K, 31929 kPa
  mass density: 698.302 ± 0.93 kg/m3
308.15 K, 32886 kPa
  mass density: 699.002 ± 0.94 kg/m3
308.15 K, 32941 kPa
  mass density: 698.96 ± 0.94 kg/m3
308.15 K, 34011 kPa
  mass density: 700.438 ± 0.94 kg/m3
308.15 K, 37971 kPa
  mass density: 703.176 ± 0.96 kg/m3
308.15 K, 40011 kPa
  mass density: 704.309 ± 0.97 kg/m3
308.15 K, 41998 kPa
  mass density: 705.614 ± 0.98 kg/m3
308.15 K, 45017 kPa
  mass density: 707.854 ± 1 kg/m3
308.15 K, 48033 kPa
  mass density: 709.906 ± 1 kg/m3
308.15 K, 50044 kPa
  mass density: 711.265 ± 1 kg/m3
308.15 K, 51977 kPa
  mass density: 712.584 ± 1 kg/m3
308.15 K, 54982 kPa
  mass density: 714.563 ± 1.1 kg/m3
308.15 K, 58009 kPa
  mass density: 716.265 ± 1.1 kg/m3
308.15 K, 60030 kPa
  mass density: 717.688 ± 1.1 kg/m3
308.15 K, 61985 kPa
  mass density: 718.959 ± 1.1 kg/m3
308.15 K, 64980 kPa
  mass density: 720.569 ± 1.1 kg/m3
308.16 K, 15069 kPa
  mass density: 685.368 ± 0.86 kg/m3
308.16 K, 34949 kPa
  mass density: 701.078 ± 0.95 kg/m3
308.16 K, 66088 kPa
  mass density: 721.543 ± 1.1 kg/m3
313.15 K, 100.8 kPa
  mass density: 666.87 ± 0.81 kg/m3
313.15 K, 316 kPa
  mass density: 667.185 ± 0.81 kg/m3
313.15 K, 569.6 kPa
  mass density: 667.234 ± 0.81 kg/m3
313.15 K, 1088.8 kPa
  mass density: 668.002 ± 0.82 kg/m3
313.15 K, 2109.7 kPa
  mass density: 669.053 ± 0.82 kg/m3
313.15 K, 3137 kPa
  mass density: 670.192 ± 0.82 kg/m3
313.15 K, 5111.8 kPa
  mass density: 672.198 ± 0.83 kg/m3
313.15 K, 6921.8 kPa
  mass density: 674.169 ± 0.83 kg/m3
313.15 K, 9210.7 kPa
  mass density: 676.379 ± 0.84 kg/m3
313.15 K, 10209 kPa
  mass density: 677.309 ± 0.84 kg/m3
313.15 K, 12020 kPa
  mass density: 679.079 ± 0.85 kg/m3
313.15 K, 15059 kPa
  mass density: 681.665 ± 0.86 kg/m3
313.15 K, 17921 kPa
  mass density: 684.308 ± 0.87 kg/m3
